Read-outs that look alike come from different tables or passages of the source.
Columns and labels:
[1] = In vivo pharmacokinetic study, plasma and brain levels by LC-MS; set-up: species or system mice
Experimental: The compounds pharmacokinetic properties were examined in vivo by administering the compounds intraperitoneally (i.p.) at 1 mg/kg in mice, and determining plasma and brain levels over 8 h by LC-MS measurements.
The pharmacokinetic study was performed by Pharmacelsus (Saarbrücken, Germany). In total 27 male C57BL/6 mice (8 weeks old, 23-31 g body weight, purchased from Janvier Labs, France) were used. The animals were housed in a temperature-controlled room (20-24° C.) and maintained in a 12 h light/dark cycle. Food and water were available ad libitum. All experimental procedures were approved by and conducted in accordance with the regulations of the local Animal Welfare authorities (Landesamt für Gesundheit und Verbraucherschutz, Abteilung Lebensmittel-und Veterinärwesen, Saarbrücken).
The animals were divided into 3 groups (9 mice/group) and a cassette dosing was performed, in which the mice received a single dose of 1 mg/kg body weight of 3-4 compounds (dissolved in 0.9% NaCl containing 20% cyclodextrine) i.p. simultaneously. From each animal 2 blood samples were collected from the retrobulbar venous plexus under short isoflurane anesthesia (at 0.25 h and 0.5 h from 3 mice; at 1 h and 2 h from 3 mice; and at 4 h and 8 h from 3 mice). Li-heparin was used as anticoagulant. Plasma samples were obtained by centrifugation for 10 min at 3000× g and 4° C. Immediately after the last blood sample the animal was sacrificed by cervical dislocation and the brain was removed and frozen in liquid nitrogen. Plasma and brain samples were stored at −80° C. until LC-MS analysis.
For all other compounds, the HPLC system consisted of a U-HPLC pump (Accela) and an AS Open auto sampler (Thermo Fisher Scientific, USA), and mass spectrometry was performed on a Q Exactive (Orbitrap) accurate mass spectrometer equipped with a heated electrospray (H-ESI) interface (Thermo Fisher Scientific, USA) connected to a PC running the standard software Chromeleon 7.2. For all compounds, the HPLC pump flow rate was set to 600 μl/min and the compounds were separated on an analytical column with a suitable pre-column. The pharmacokinetic analysis was performed applying a non-compartment model using the Kinetica 5.0 software (Thermo Scientific, Waltham, USA). All given parameters were obtained by trapezoid area calculation.

44 targets = assay: SafetyScreen44 panel (Eurofins), whole panel; format: binding, mostly human; details: 10 μM, out of 44 targets
Experimental: (§1) Compound enzyme inhibition effect was calculated as a % inhibition of control enzyme activity. […] Measurements were performed in duplicate.

[2] = target: T1, alpha-1A adrenergic receptor (α1A) (Homo sapiens, UniProt P35348); assay: SafetyScreen44 binding; details: substantial = higher than 50%
T1 construct: Eurofins SafetyScreen44
T1 sequence (P35348 whole entry): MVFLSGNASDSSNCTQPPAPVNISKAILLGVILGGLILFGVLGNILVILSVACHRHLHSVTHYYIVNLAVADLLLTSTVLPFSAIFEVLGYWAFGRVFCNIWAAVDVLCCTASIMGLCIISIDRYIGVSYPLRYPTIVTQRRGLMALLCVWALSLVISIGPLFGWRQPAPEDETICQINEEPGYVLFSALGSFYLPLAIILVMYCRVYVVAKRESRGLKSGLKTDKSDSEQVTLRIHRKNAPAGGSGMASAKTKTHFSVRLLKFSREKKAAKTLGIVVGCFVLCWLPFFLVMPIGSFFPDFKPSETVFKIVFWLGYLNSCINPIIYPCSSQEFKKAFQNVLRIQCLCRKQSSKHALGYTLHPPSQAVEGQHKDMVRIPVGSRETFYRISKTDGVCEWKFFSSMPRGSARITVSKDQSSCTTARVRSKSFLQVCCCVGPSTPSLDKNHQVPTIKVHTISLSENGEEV
Experimental: as §1

[3] = target: T2, human ether-à-go-go (hERG) potassium channel (Homo sapiens, UniProt Q12809); assay: SafetyScreen44 binding; details: 10 μM
T2 construct: Eurofins SafetyScreen44
T2 sequence (Q12809 whole entry): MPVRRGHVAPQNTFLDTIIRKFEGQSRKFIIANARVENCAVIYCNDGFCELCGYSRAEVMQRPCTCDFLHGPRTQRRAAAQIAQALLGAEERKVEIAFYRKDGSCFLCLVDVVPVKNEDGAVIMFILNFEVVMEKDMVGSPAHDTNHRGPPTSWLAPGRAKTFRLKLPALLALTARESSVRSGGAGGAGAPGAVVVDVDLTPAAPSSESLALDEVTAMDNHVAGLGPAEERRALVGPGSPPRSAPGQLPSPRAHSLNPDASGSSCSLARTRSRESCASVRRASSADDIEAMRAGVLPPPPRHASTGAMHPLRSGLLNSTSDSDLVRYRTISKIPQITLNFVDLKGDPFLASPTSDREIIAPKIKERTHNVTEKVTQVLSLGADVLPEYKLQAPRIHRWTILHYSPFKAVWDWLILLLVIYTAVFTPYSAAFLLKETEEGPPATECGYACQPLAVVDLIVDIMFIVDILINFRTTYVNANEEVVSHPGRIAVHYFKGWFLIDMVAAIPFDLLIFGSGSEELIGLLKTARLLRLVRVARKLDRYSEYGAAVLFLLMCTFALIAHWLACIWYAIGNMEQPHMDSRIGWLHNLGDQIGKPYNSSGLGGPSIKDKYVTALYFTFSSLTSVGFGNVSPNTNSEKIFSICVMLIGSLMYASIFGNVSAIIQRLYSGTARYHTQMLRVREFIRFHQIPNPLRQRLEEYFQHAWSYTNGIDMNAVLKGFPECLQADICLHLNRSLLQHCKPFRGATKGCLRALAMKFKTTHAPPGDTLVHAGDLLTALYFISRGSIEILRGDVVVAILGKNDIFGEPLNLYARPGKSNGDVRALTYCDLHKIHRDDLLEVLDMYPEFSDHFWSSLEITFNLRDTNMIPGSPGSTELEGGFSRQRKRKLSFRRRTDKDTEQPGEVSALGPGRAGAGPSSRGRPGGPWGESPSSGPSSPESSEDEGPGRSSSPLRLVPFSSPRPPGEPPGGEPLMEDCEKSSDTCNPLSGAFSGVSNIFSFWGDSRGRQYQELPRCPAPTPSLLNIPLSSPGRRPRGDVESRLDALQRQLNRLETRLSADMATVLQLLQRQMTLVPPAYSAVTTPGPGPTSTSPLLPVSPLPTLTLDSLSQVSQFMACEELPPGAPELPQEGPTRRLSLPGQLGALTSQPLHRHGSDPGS
Experimental: as §1

[4] = target: T3, serotonin 5-HT2A receptor (Homo sapiens, UniProt P28223); assay: SafetyScreen44 binding; details: substantial = higher than 50%
T3 construct: Eurofins SafetyScreen44
T3 sequence (P28223 whole entry): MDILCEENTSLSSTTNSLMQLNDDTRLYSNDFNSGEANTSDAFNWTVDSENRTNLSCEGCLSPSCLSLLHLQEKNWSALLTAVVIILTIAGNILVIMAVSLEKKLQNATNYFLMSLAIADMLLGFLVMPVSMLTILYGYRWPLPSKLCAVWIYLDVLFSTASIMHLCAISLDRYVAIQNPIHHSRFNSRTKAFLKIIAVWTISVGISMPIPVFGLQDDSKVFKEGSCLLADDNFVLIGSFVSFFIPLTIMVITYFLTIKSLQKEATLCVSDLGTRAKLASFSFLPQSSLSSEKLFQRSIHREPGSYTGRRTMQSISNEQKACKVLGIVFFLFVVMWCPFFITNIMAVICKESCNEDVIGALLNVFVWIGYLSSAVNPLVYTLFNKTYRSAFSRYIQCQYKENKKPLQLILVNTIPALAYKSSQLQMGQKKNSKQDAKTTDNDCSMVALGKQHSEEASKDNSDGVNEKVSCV
Experimental: as §1

[5] = target: T4, serotonin 5-HT2B receptor (Homo sapiens, UniProt P41595); assay: SafetyScreen44 binding; details: substantial = higher than 50%
T4 construct: Eurofins SafetyScreen44
T4 sequence (P41595 whole entry): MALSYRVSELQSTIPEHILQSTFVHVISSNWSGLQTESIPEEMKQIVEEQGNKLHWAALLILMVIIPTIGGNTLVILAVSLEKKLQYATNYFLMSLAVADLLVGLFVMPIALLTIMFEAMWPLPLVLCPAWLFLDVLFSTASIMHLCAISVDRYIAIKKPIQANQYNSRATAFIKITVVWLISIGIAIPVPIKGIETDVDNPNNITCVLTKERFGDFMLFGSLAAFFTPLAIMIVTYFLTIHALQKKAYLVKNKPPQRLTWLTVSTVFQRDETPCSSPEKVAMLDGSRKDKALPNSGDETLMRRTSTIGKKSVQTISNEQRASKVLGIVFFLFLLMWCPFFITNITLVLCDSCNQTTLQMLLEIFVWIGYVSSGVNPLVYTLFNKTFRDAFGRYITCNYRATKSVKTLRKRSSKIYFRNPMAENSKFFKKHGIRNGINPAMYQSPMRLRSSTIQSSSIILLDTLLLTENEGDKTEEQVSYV
Experimental: as §1

[6] = target: T5, serotonin transporter (SET) (Homo sapiens, UniProt P31645); assay: SafetyScreen44 binding; details: substantial = higher than 50%
T5 construct: Eurofins SafetyScreen44
T5 sequence (P31645 whole entry): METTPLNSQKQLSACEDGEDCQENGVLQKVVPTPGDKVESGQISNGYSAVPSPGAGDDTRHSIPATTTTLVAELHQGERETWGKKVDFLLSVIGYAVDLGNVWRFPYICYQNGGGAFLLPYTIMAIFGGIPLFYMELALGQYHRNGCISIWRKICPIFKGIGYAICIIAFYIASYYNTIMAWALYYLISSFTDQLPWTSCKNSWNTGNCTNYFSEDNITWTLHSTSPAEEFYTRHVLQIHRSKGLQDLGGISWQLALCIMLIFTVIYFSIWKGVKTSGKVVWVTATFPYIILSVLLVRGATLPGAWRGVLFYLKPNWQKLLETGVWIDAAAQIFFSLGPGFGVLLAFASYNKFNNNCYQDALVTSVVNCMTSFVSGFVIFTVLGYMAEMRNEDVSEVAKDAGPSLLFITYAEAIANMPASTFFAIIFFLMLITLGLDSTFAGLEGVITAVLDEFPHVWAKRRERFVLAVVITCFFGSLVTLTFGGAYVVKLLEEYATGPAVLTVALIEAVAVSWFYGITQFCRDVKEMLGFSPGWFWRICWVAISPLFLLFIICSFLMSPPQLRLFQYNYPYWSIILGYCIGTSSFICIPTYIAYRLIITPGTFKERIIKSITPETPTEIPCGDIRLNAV

[7] = system: voltage-gated (KV) potassium channel; assay: SafetyScreen44 binding; set-up: species or system rat; details: 10 μM
Experimental: as §1

motor function of mice [8] = assay: Accelerating rotarod test (motor function); format: in vivo; details: dose ≥0.39 mg/kg i.p.
Experimental: (§2) Further studies were conducted to assess the in vivo efficacy of Compound 6 and Compound 10 in mice. In detail, experiments were performed in 8 to 16 weeks old C57BL/6N mice (Charles River, Sulzfeld, Germany) and animals with a genetic deletion of Slack (Slack^−/− mice^27) of either sex. Animals were housed on a 12 h light/dark cycle with access to food and water ad libitum. All experiments adhered to the guidelines of the International Association for the Study of Pain and to the ARRIVE (Animal Research: Reporting on In Vivo Experiments) guidelines, and were approved by and conducted in accordance with the regulations of the local Animal Welfare authorities (Regierungspräsidium Darmstadt, Germany). All behavioral studies were conducted during the light cycle of the day at room temperature (20-24° C.) by an observer blinded for the treatment of the animals and/or their genotype.
(§3) Accelerating rotarod and vertical pole test were performed as follows: Mice were placed on a rotarod treadmill (Ugo Basile, Italy) with increasing speed (4-40 rpm over 300 s), and were trained for 4-5 consecutive days. Only mice reaching the 300 seconds without falling off were included in the experiment. On the testing day, compounds were i.p. administered in a vehicle composed of 0.9% saline (Sigma-Aldrich) containing 10% 2-hydroxypropyl-β-cyclodextrine (ITW Reagents) and after 15 min the latency to fall off the accelerating rotarod was measured. Immediately thereafter, mice were placed head-upward on the top of a vertical pole with a rough surface (diameter 1 cm, height 40 cm) and the time until animals reached the ground was recorded (cut-off time 20 s). Means out of three trials for each time point were calculated for further analysis.

motor function of mice [9] = assay: Vertical pole test (motor function); format: in vivo; details: dose ≥0.39 mg/kg i.p.
Experimental: as §2, §3

[10] = system: chloroquine-induced scratching behavior of mice; assay: Chloroquine-induced acute itch (scratching) model, systemic treatment; format: in vivo; details: systemic administration of a low dose; preliminary experiments, data not shown
Experimental: as §2
Acute itch behavior of the mice was monitored using a histamine-based, chloroquine-based and SLIGRL-based acute itch behavior model. In these models, three to four days before the experiment day, the fur on the dorsolateral aspect of the neck was shaved under brief isoflurane anesthesia. On the testing day, mice were habituated for 30 min in separate plexiglass cylinders (30 cm diameter). Compounds were dissolved in 0.9% saline containing 10% 2-hydroxypropyl-β-cyclodextrine and i.p. administered in a volume of maximal 200 μL. 15 min thereafter, the pruritogens chloroquine (200 μg), SLIGRL (100 μg) or histamine (800 μg), all dissolved in 0.9% saline (20 μL), were injected subcutaneously into the nape of the neck. Numbers of scratching bouts directed to the nape of the neck were assessed over 30 min by videotaping.

[11] = male, C57BL/6, mouse, in vivo, ip, 1 mg/kg
[12] = mice, 1 mg/kg i.p., cassette dosing, plasma

CN1CCN(C2=Nc3ccccc3Oc3ccc(C(F)(F)F)cc32)CC1 [Compound 2, 11-(4-Methylpiperazin-1-yl)-2-(trifluoromethyl)dibenzo[b,f][1,4]oxazepine]
% AUCextra [1, 11]: 19.3% | AUC(0-inf) [1, 11]: 84 ng·h/mL | AUC(0-t) [1, 11]: 67.8 ng·h/mL | CL/F [1, 11]: 199 mL/min/kg | Cmax [1, 11]: 25.6 ng/mL | Cz [1, 11]: 3.3 ng/mL | Tmax [1, 11]: 15 min | Vd/F [1, 11]: 58.5 L/kg | half-life [1, 11]: 204 min | tz [1, 11]: 8 h

CN1CCCN(C2=Nc3ccccc3Oc3ccc(C(F)(F)F)cc32)CC1 [Compound 3, 11-(4-Methyl-1,4-diazepan-1-yl)-2-(trifluoromethyl)dibenzo[b,f][1,4]oxazepine]
% AUCextra [1, 11]: 5.0% | AUC(0-inf) [1, 11]: 58.3 ng·h/mL | AUC(0-t) [1, 11]: 55.4 ng·h/mL | CL/F [1, 11]: 286 mL/min/kg | Cmax [1, 11]: 32.3 ng/mL | Cz [1, 11]: 1.0 ng/mL | Tmax [1, 11]: 30 min | Vd/F [1, 11]: 50.1 L/kg | half-life [1, 11]: 120 min | tz [1, 11]: 8 h

CN1CCN(C2=Nc3cc(F)ccc3Oc3ccc(C(F)(F)F)cc32)CC1 [Compound 4, 8-Fluoro-11-(4-methylpiperazin-1-yl)-2-(trifluoromethyl)dibenzo[b,f][1,4]oxazepine]
% AUCextra [1, 11]: 11.4% | AUC(0-inf) [1, 11]: 122 ng·h/mL | AUC(0-t) [1, 11]: 108 ng·h/mL | CL/F [1, 11]: 137 mL/min/kg | Cmax [1, 11]: 40 ng/mL | Cz [1, 11]: 4.1 ng/mL | Tmax [1, 11]: 30 min | Vd/F [1, 11]: 27.7 L/kg | half-life [1, 11]: 138 min | tz [1, 11]: 8 h

OCCN1CCN(C2=Nc3ccccc3Oc3ccc(Cl)cc32)CC1 [Compound 5, 2-(4-(2-Chlorodibenzo[b,f][1,4]oxazepin-11-yl)piperazin-1-yl) ethan-1-ol]
% AUCextra [1, 11]: 1.3% | AUC(0-inf) [1, 11]: 50.2 ng·h/mL | AUC(0-t) [1, 11]: 49.6 ng·h/mL | CL/F [1, 11]: 332 mL/min/kg | Cmax [1, 11]: 44 ng/mL | Cz [1, 11]: 0.4 ng/mL | Tmax [1, 11]: 15 min | Vd/F [1, 11]: 33.1 L/kg | half-life [1, 11]: 72 min | tz [1, 11]: 8 h

OCCOCCN1CCN(C2=Nc3ccccc3Sc3ccc(Cl)cc32)CC1 [Compound 7, 2-(2-(4-(2-Chlorodibenzo[b,f][1,4]thiazepin-11-yl)piperazin-1-yl)ethoxy) ethan-1-ol]
% AUCextra [1, 11]: 0.9% | AUC(0-inf) [1, 11]: 71.9 ng·h/mL | AUC(0-t) [1, 11]: 71.2 ng·h/mL | CL/F [1, 11]: 232 mL/min/kg | Cmax [1, 11]: 87.2 ng/mL | Cz [1, 11]: 0.3 ng/mL | Tmax [1, 11]: 15 min | Vd/F [1, 11]: 31.4 L/kg | half-life [1, 11]: 96 min | tz [1, 11]: 8 h

O=C(O)COCCN1CCN(C2=Nc3ccccc3Oc3ccc(C(F)(F)F)cc32)CC1 [Compound 8, 2-(2-(4-(2-(Trifluoromethyl)dibenzo[b,f][1,4]oxazepin-11-yl)piperazin-1-yl)ethoxy) acetic acid]
% AUCextra [1, 11]: 20.7% | AUC(0-inf) [1, 11]: 851 ng·h/mL | AUC(0-t) [1, 11]: 675 ng·h/mL | CL/F [1, 11]: 19.6 mL/min/kg | Cmax [1, 11]: 316 ng/mL | Cz [1, 11]: 31.4 ng/mL | Tmax [1, 11]: 15 min | Vd/F [1, 11]: 6.58 L/kg | half-life [1, 11]: 234 min | tz [1, 11]: 8 h

O=C(O)COCCN1CCCN(C2=Nc3ccccc3Oc3ccc(C(F)(F)F)cc32)CC1 [Compound 9, 2-(2-(4-(2-(Trifluoromethyl)dibenzo[b,f][1,4]oxazepin-11-yl)-1,4-diazepan-1-yl)ethoxy) acetic acid]
% AUCextra [1, 11]: 0.6% | AUC(0-inf) [1, 11]: 123 ng·h/mL | AUC(0-t) [1, 11]: 123 ng·h/mL | CL/F [1, 11]: 135 mL/min/kg | Cmax [1, 11]: 242 ng/mL | Cz [1, 11]: 0.3 ng/mL | Tmax [1, 11]: 15 min | Vd/F [1, 11]: 21.1 L/kg | half-life [1, 11]: 108 min | tz [1, 11]: 8 h

CN1CCN(C2=Nc3ccccc3Oc3ccc(Cl)cc32)CC1 [Loxapine, 2-chloro-11-(4-methylpiperazin-1-yl)dibenzo[b,f][1,4]oxazepine, reference compound]
AUC(0-inf) ([1]; male, C57BL/6, mouse, ip, mice, 1 mg/kg i.p., cassette dosing, plasma, read-out: AUC (0-inf)): 116 ng·h/mL | AUC(0-t) ([1]; male, C57BL/6, mouse, ip, mice, 1 mg/kg i.p., cassette dosing, plasma, read-out: AUC(0-tz)): 105 ng·h/mL | CL/F ([1]; male, C57BL/6, mouse, ip, mice, 1 mg/kg i.p., cassette dosing, plasma, read-out: CL/f (converted)): 144 mL/min/kg | Cmax ([1]; male, C57BL/6, mouse, ip, mice, 1 mg/kg i.p., cassette dosing, plasma, read-out: Cmax): 41.6 ng/mL | Vd/F ([1]; male, C57BL/6, mouse, ip, mice, 1 mg/kg i.p., cassette dosing, plasma, read-out: Vz/f): 28.8 L/kg | half-life ([1]; male, C57BL/6, mouse, ip, mice, 1 mg/kg i.p., cassette dosing, plasma, read-out: t1/2z (terminal elimination half-life) (converted)): 138 min | Tmax ([1]; male, C57BL/6, mouse, ip, mice, 1 mg/kg i.p., cassette dosing, plasma, read-out: tmax): 15 min | % AUCextra [1, 12]: 9.2% | Cz [1, 12]: 3.2 ng/mL | tz [1, 12]: 8 h | number of targets with substantial binding inhibition (higher than 50%) (44 targets): 17 | inhibition at 10 µM [2]: > 50% | binding to hERG potassium channel in the off-target screen [3]: did not measurably bind | inhibition at 10 µM [4]: > 50% | inhibition at 10 µM [5]: > 50% | inhibition at 10 µM [6]: > 50% | binding to voltage-gated (KV) potassium channel in the off-target screen [7]: did not measurably bind | ability to perform in the accelerating rotarod test (motor function of mice [8]): significantly reduced the ability of the mice to perform | ability to perform in the vertical pole test (motor function of mice [9]): significantly reduced the ability of the mice to perform | chloroquine-induced scratching behavior of wildtype mice [10]: significantly alleviated | scratching behavior in Slack knockout mice [10]: did not affect

Source: patent US20260258003A1, “SLACK-ACTIVATING COMPOUNDS AND THEIR MEDICAL USE” (Johann Wolfgang Goethe-Universität Frankfurt am Main, priority 2023, published 2026)
